In patent US20240391904A1, “DIHYDROPYRIMIDINE BASED COMPOUND, PREPARATION METHOD THEREFOR AND USE OF THEREOF” (CHENGDU SHIBEIKANG BIOMEDICAL TECHNOLOGY CO., LTD., priority 2021, published 2024):
Marks after values point to notes of the source that are not given here.

Tests used:
[1] = biological target: T1, human P2X3 receptor (Homo sapiens, UniProt P56373); experiment: In vitro bioactivity evaluation: FLIPR antagonist mode, HEK 293 cells stably transfected with human P2X3 receptor, BZATP agonist
T1 sequence (P56373 1-397): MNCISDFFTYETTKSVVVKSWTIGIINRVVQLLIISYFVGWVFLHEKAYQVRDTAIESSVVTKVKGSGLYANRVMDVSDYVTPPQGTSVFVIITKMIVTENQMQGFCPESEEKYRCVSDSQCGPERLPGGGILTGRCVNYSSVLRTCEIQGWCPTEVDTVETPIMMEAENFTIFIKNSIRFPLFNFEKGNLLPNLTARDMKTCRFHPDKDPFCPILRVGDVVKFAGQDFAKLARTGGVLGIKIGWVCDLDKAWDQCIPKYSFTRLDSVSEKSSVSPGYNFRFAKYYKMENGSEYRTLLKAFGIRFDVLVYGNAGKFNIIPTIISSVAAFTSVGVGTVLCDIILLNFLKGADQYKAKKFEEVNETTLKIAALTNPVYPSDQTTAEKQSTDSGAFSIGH
Description: Cell culture medium: DMEM high glucose; 10% FBS; 1% PenStrep.
The Petri dish was placed in an incubator for 1-3 minutes or until the cells were digested, 3 mL of a complete medium was then added to terminate the digestion, and the cell density was determined by a cell counter. • 2) After centrifugation at 1000 rpm/min for 5 min, the cells were resuspended in a growth medium and the volume of the suspension was adjusted to reach a cell density of 4×10^5 cells/mL (1×10^4 cells/25 μL). • 3) 10 μL of 5× Matrigel was added into a black microplate, and the microplate was placed in an incubator for 15 min. The microplate was removed and invertedly centrifuged at 300 g/min for 30 s to remove the 5× Matrigel.

[2] = test system: SD rats; experiment: Taste disorder test (quinine water versus tap water intake); format: in vivo, rat; conditions: for effect on the taste sense: 10 mg/kg intravenously, quinine/tap water ratio compared with vehicle group; for Quinine/tap water (%): 10 mg/kg tail intravenous injection, 0-15 min after administration, 0.3 mM quinine hydrochloride water versus tap water
Description: Compounds of Examples 1, 9, 12, 15, 16, 24 (synthesized in the laboratory of the present inventor), the positive control drug (gefapixant, batch No: 01030-210326-2-1, purchased from Holder Pharmaceuticals).
0.9% sodium chloride solution for injection, quinine hydrochloride (Quinie, batch No: C12476271)
Healthy adult SD rats, all males, weighing about 280-300 g.
Preparation of 0.3 mM quinine solution: 119.20 mg of quinine hydrochloride was weighed and dissolved in 1000 ml of tap water, and mixed evenly.
Preparation of the test sample solution: 40 mg of a test sample was dissolved in DMSO and a solution of the solubilizer HS-15 was added, mixed evenly, and 16 ml of saline was added to formulate a 2.5 mg/ml solution.
Animal and grouping: male SD rats weighed about 160-180 g each, with 10 of a similar average weight in each group, were housed in seperate cages.
Drinking habit training: each group was given normal drinking water for 30 minutes at 8:30 am and 16:30 pm every day, and no access of water for the rest of the day for 5 days, and two bottles of water were changed every day at the left and right positions.
Administration: with no access to water the night before the experiment, in the following morning the test group was given 4 mL/kg (10 mg/kg) of the test sample by tail intravenous injection, and the model group was given 4 mL/kg (10 mg/kg) of 0.5% HS-15 by intravenous injection.
The animals were allowed to drink freely for 15 min, and the amount of water consumed from the two bottles was measured to the nearest 0.1 ml.
(2) Statistical analysis of the data: the drinking volume of the quinine bitter water and tap water were recorded separately, as well as the percentage of quinine water to the tap water, and the significance of the difference between the groups was determined by ANOVA.

[3] = test system: KM mice; experiment: Mouse cough test (ammonia-induced coughing); format: in vivo; conditions: for reduction in the number of coughs at 3 mg/kg: compared with model group; for duration of the cough suppression action / cough suppressing effect compared with the positive compound: 30 mg/kg; for duration of the cough suppression action: 30 to 120 min after administration; for Number of Coughs (time): mice
Description: Compounds of Example 1-24 (synthesized in the inventor's laboratory), positive control drug (gefapixant, batch No: 01030-210326-2-1, purchased from Holder Pharmaceuticals), the compound of Comparative Example 1 (synthesized in the inventor's laboratory).
Healthy adult KM mice, half of them are male and half of them are female, 6 per group, weighing about 28-30 g.
Most of the animal coughing models currently reported in the literatures use mechanical, chemical and electrical stimulations to stimulate the nerves and receptors of the animals to trigger coughing. According to the characteristics of the candidate compounds and the existing similar target compounds for reference, the method of concentrated ammonia induction was initially chosen to establish the cough modeling test in mice.
Preparation of 50% ammonia solution: 2.5 ml of ammonia was dissolved in […] of a 0.9% sodium chloride solution for injection and mixed evenly.
Preparation of a solution of the compound of Comparative Example 1: 9 mg of the compound of Comparative Example 1 was weighed and dissolved in 3 ml of a 0.5% CMC-Na solution, and mixed evenly to prepare a 3 mg/ml solution.
Preparation of a solution of the example compounds: 9 mg of the example compound was weighed and dissolved in 3 ml of a 0.5% CMC-Na solution, and mixed evenly to prepare a 3 mg/ml solution.
Grouping: a positive control group, a Comparative Example 1 group, Example 1 group-Example 24 group, and a model group were set up. Six KM mice were taken from each group and administered by gavage; here, the Comparative Example 1 group was given the compound of Comparative Example 1, the positive control group was given the positive control drug (gefapixant, commercially purchased), the Example groups were given the compounds prepared in the corresponding Examples, with each group given one of three dosages: 30 mg/kg, […], and 3 mg/kg; and the model group was given the same volume of 0.5% CMC-Na solution.
30 min, 60 min or 120 min after administration, the mice were placed in a 500 ml beaker with a cotton ball (weight 100±5 mg) containing 0.3 ml of 50% ammonia.
(1) Judgment criteria of coughing: coughing was manifest in contraction of abdominal muscles or chest contraction, with mouth wide opening and a coughing sound.
(2) The number of coughs (times) within 3 min was recorded with a stopwatch, and the data were statistically analyzed by software, with the data in each group shown in mean±standard deviation. A one-way analysis of variance among the groups was conducted, and P<0.05 was considered a difference having a statistical significance.

[4] = 3 mg/kg by gavage, 60 min after administration, coughs within 3 min
[5] = 10 mg/kg by gavage, 60 min after administration, coughs within 3 min
[6] = 30 mg/kg by gavage, 30 min after administration, coughs within 3 min, ammonia-induced
[7] = 30 mg/kg by gavage, 60 min after administration, coughs within 3 min (Table 5)
[8] = 30 mg/kg by gavage, 60 min after administration, coughs within 3 min (Table 6)
[9] = 30 mg/kg by gavage, 120 min after administration, coughs within 3 min

IC50 [1] [nM] | effect on the taste sense [2] | Quinine/tap water (%) [2] [%^Δ] | Structure (SMILES) | reduction in the number of coughs at 3 mg/kg ([3]; 60 min after administration) | cough suppressing efficacy at 10 mg/kg ([3]; 60 min after administration) | duration of the cough suppression action [3] | cough suppressing effect compared with the positive compound ([3]; 30 min after administration) | Number of Coughs (time) [3, 4] | Number of Coughs (time) [3, 5] | Number of Coughs (time) [3, 6] | Number of Coughs (time) [3, 7] | Number of Coughs (time) [3, 8] | Number of Coughs (time) [3, 9]
10.1 to 50 | little or no effect on the taste sense | 39.84 | C[C@@H](Cn1c(=O)cc(Nc2ccc(Oc3ccccn3)cc2)n(Cc2ccc(Cl)cc2)c1=O)C(=O)NS(C)(=O)=O [Compound 9] | statistically significant (P<0.01) reduction in the number of coughs | improved cough suppressing efficacy than the positive control drug | significantly prolonged compared with that of the compound of Comparative Example 1 | stronger than that of the positive compound | 25.37** time | 19.54**^Δ time | 13.62** time | 16.33** time | 16.33** time | 23.83**^Δ time
< 10 | little or no effect on the taste sense | 37.18 | CC(C)(Cn1c(=O)cc(Nc2ccc(Oc3ccccn3)cc2)n(Cc2ccc(Cl)cc2)c1=O)C(=O)NS(C)(=O)=O [Compound 12] | – | improved cough suppressing efficacy than the positive control drug | significantly prolonged compared with that of the compound of Comparative Example 1 | stronger than that of the positive compound | 33.17 time | 21.17**^Δ time | 15.67** time | 17.17** time | 17.17** time | 20.17*^Δ time
< 10 | – | – | C[C@@H](Cn1c(=O)cc(Nc2ccc(Oc3ccccn3)cc2)n(Cc2ccc(Cl)cc2)c1=O)C(=O)O [Compound 7] | statistically significant (P<0.01) reduction in the number of coughs | improved cough suppressing efficacy than the positive control drug | – | stronger than that of the positive compound | 23.34** time | 20.83**^Δ time | 15.20** time | 15.00** time | 15.00** time | 38.13 time

Further lines, the compound ahead of its results:

Structure (SMILES) | IC50 [1] [nM] | effect on the taste sense [2] | Quinine/tap water (%) [2] [%^Δ] | reduction in the number of coughs at 3 mg/kg ([3]; 60 min after administration) | cough suppressing efficacy at 10 mg/kg ([3]; 60 min after administration) | duration of the cough suppression action [3] | cough suppressing effect compared with the positive compound ([3]; 30 min after administration) | Number of Coughs (time) [3, 4] | Number of Coughs (time) [3, 5] | Number of Coughs (time) [3, 6] | Number of Coughs (time) [3, 7] | Number of Coughs (time) [3, 8] | Number of Coughs (time) [3, 9]
C[C@@H](Cn1c(=O)cc(Nc2ccc(Oc3cccc(F)n3)cc2)n(Cc2ccc(Cl)cc2)c1=O)C(=O)NS(C)(=O)=O [Compound 24] | < 10 | little or no effect on the taste sense | 39.61 | statistically significant (P<0.01) reduction in the number of coughs | improved cough suppressing efficacy than the positive control drug | significantly prolonged compared with that of the compound of Comparative Example 1 | stronger than that of the positive compound | 25.45** time | 24.14**^Δ time | 17.07** time | 21.33** time | 21.33** time | 25.14**^Δ time
C[C@@H](Cn1c(=O)cc(Nc2ccc(Oc3cnccn3)cc2)n(Cc2ccc(Cl)cc2)c1=O)C(=O)NS(C)(=O)=O [Compound 3] | 10.1 to 50 | – | – | statistically significant (P<0.01) reduction in the number of coughs | improved cough suppressing efficacy than the positive control drug | significantly prolonged compared with that of the compound of Comparative Example 1 | stronger than that of the positive compound | 21.14** time | 19.83**^Δ time | 16.21** time | 16.02** time | 16.02** time | 15.13**^Δ time
C[C@@H](Cn1c(=O)cc(Nc2ccc(Oc3ncccn3)cc2)n(Cc2ccc(Cl)cc2)c1=O)C(=O)NS(C)(=O)=O [Compound 22] | 50.1 to 100 | – | – | – | – | – | – | – | – | 35.61 time | – | – | –
C[C@@H](Cn1c(=O)cc(Nc2ccc(Oc3ccc(OC(F)F)cn3)cc2)n(Cc2ccc(Cl)cc2)c1=O)C(=O)NS(C)(=O)=O [Compound 20, (S)-3-(3-(4-chlorobenzyl)-2,6-dioxo-4-(4-(5-((5-difluoromethoxy)pyridin-2-yl)oxyphenyl)amino)-3,6-dihydropyrimidin-1(2H)-yl)-2-methyl-N-(sulfonyl)propionamide group] | 10.1 to 50 | – | – | – | – | – | stronger than that of the positive compound | – | – | 15.17** time | – | – | –
